A short description of data set [1]: NADPH-dependent phase I metabolic stability in rat liver microsomes. Format: in vitro ADME. The protocol:
(§1) Metabolic stability was measured by monitoring the amount of parent compound that remained in an incubation mixture at designated incubation time points. For the phase I metabolism study, SKN (100 μM) was incubated with liver microsomes (1 mg/mL, rat, mouse, and dog; and 0.5 mg/mL, human), and an NADPH-generation cocktail consisting of nicotinamide adenine dinucleotide phosphate (NADP^+, 1 mM), glucose-6-phosphate (5 mM), glucose-6-phosphate dehydrogenase (1 unit/mL), and MgCl2 (10 mM) in potassium phosphate buffer (0.1 M, pH 7.4) in a total volume of 1 mL. To study phase II glucuronide conjugative metabolism, uridine 5′-diphosphoglucuronic acid (UDPGA) (2 mM) was added as a cofactor. The mixture was incubated in a shaking water bath, and the enzyme reaction was initiated by the addition of NADP^+, UDPGA, or both. Aliquots (100 μL) were removed at 0, 5, 15, 30, 45, and 60 min, and the reaction was terminated by adding two volumes of ice-cold methanol. […] The half-life of SKN was obtained by plotting the remaining amount of SKN against time using Prism 3.0 software (GraphPad, La Jolla, CA, USA). Hepatic intrinsic clearance (CLint, hepatic) was calculated using the following formula [20]:CLint, hepatic = (0.693/t1/2) × (g liver weight/kg body weight) × (mL incubation/mg of microsomal protein) × (mg microsomal protein concentration/g of liver)
(§2) The DAD was set at 280 nm.

For data set [2], the target named is T1, estrogen receptor (ER) (Homo sapiens, UniProt P03372).
T1 construct: endogenous in cells
T1 sequence (P03372 1-595): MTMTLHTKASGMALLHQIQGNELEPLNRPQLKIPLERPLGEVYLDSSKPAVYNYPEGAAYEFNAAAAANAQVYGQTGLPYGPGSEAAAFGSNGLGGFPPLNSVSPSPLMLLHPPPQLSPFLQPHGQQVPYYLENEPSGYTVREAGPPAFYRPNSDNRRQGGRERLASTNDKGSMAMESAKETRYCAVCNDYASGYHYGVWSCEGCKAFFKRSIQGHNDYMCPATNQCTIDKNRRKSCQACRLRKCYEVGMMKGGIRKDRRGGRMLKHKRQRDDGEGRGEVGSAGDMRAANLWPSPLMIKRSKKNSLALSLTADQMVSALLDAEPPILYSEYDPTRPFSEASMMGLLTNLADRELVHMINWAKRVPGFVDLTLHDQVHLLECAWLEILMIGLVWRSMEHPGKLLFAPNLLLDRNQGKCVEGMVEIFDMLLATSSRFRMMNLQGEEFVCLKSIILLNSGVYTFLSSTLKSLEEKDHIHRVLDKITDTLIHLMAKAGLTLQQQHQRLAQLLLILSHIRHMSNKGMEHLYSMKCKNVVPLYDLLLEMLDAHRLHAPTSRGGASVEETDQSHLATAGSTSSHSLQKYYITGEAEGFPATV
Put plainly: Estrogen receptor agonist-like activity in ER-positive human breast cancer cells. As to conditions: preliminary data, not shown. Format: cell-based.

The nature of data set [3]: NADPH-dependent phase I metabolic stability in human liver microsomes. Format: in vitro ADME. The protocol: as §1, §2
Data set [4] in a line: UDPGA-dependent metabolic stability in mouse liver microsomes. Format: in vitro ADME. Particulars: for half-life at 100 µM / CLint scaled at 100 µM: mouse, pH 7.4, mouse liver microsomes; for CLint scaled at 100 µM: read-out: CLint, hepatic. The protocol:
as §1, §2

The nature of data set [5]: NADPH-dependent phase I metabolic stability in mouse liver microsomes. Format: in vitro ADME. The protocol:
as §1, §2

Data set [6] can be described thus: UDPGA-dependent metabolic stability in dog liver microsomes. Format: in vitro ADME. As to conditions: for Amount Remaining at 30 min (%): dog liver microsomes; for half-life at 100 µM / CLint scaled at 100 µM: dog, liver microsomes, pH 7.4, dog liver microsomes; for CLint scaled at 100 µM: read-out: CLint, hepatic. The protocol: as §1, §2
The target of data set [7] is CYP2C9 (Homo sapiens, UniProt P11712). Put plainly: CYP inhibition in human liver microsomes, tolbutamide 6-hydroxylation (TOLHY). As to conditions: CYP2C9, TOLHY, SKN 10 μM.
CYP2C9, sequence (P11712 whole entry): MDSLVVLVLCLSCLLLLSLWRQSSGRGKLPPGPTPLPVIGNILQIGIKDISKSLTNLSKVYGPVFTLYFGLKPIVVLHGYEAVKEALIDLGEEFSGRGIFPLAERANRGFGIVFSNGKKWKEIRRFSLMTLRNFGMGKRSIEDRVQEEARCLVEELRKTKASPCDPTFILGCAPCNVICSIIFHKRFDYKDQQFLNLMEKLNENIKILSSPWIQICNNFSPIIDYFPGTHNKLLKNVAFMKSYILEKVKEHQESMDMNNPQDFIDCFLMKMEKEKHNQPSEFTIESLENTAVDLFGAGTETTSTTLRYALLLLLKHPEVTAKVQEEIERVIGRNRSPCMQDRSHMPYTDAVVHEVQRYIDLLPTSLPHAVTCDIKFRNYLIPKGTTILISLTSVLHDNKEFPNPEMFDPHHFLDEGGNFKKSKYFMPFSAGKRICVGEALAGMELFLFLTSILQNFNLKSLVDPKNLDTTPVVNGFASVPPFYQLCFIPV
Protocol: The formation of a metabolite from a CYP isozyme-specific phenotyping reaction (Table 4) was monitored. Each substrate (200 μM), along with SKN (10 μM), was incubated with human liver microsomes (0.5 mg/mL) and an NADPH-generating system in 0.1 M potassium phosphate buffer (pH 7.4) at 37 °C for 60 min in a total volume of 200 μL in a shaking water bath. The metabolic reaction was initiated by adding NADP^+ (1 mM) and stopped by adding 10 μL of trichloroacetic acid. In some experiments, the microsomes were pre-incubated with SKN for 15 min prior to the addition of the cofactor, in order to determine the time-dependent inhibitory effect. […] In contrast, co-incubation refers to experiments in which microsomes and cofactors were incubated in the presence of SKN. After centrifugation of incubation samples at 12,000× g for 15 min at 4 °C, the supernatant (20 μL) was injected into an HPLC-DAD system to analyze the metabolites formation (Supplementary Materials).
The DAD was set at 248 nm for phenacetin O-deethylation (PCOD), 298 nm for bupropion hydroxylation (BPHY), 276 nm for diclofenac 4′-hydroxylation (DCHY), 230 nm for tolbutamide 6-hydroxylation (TOLHY), 280 nm for dextromethorphan O-demethylation (DEXOD), and 250 nm for testosterone 6β-hydroxylation (TSTHY) and testosterone β-D-glucuronidation (TSTG).
Data set [8] deals with hPXR-mediated CYP3A4 promoter. Nature of the data set: PXR-mediated CYP3A4 promoter luciferase assay in HepG2 cells. Format: cell-based, human. Particulars: pcDNA3-PXR-transfected HepG cells, SKN 20 μM, 24 h. On the procedure:
HepG2 cells (American Tissue Culture Collection, Manassas, VA, USA) were maintained in Dulbecco’s modified Eagle’s essential medium (DMEM), containing 10% fetal bovine serum, 1% nonessential amino acids, 1% GlutaMAX®, and 1% antibiotics/antimycotics at 37 °C in a 5% CO2 atmosphere. The expression plasmid encoding the human constitutive androstane receptor (hCAR; pcDNA3-CAR) and the pGL3-CYP2B6 luciferase construct were kindly provided by Dr. Hongbing Wang (University of Maryland, College Park, MD, USA). The plasmid encoding the human pregnane X receptor (hPXR; pcDNA3-PXR) and the pGL3-CYP3A4 luciferase construct were obtained from Dr. Masahiko Negishi at the National Institutes of Health (Bethesda, MD, USA). Cells were seeded at a density of 1.5 × 10^5 cells/well into a 24-well plate. The next day, the cells were transfected with 0.25 μg of either pcDNA3-CAR or pcDNA3-PXR and 0.25 μg of a promoter luciferase plasmid (either pGL3-CYP2B6 or pGL3-CYP3A4) using Lipofectamine 2000 (Invitrogen, Carlsbad, CA, USA) according to the manufacturer’s instructions. […] The cells were harvested and luciferase activity was measured as described previously.

Data set [9] in a line: NADPH-dependent phase I metabolic stability in dog liver microsomes. Format: in vitro ADME. The protocol: as §1, §2
The subject of data set [10] is various cancer cell lines. Particulars: cited from earlier work.

In the case of `COc1cc(O)c2c(c1)OC(c1ccc(O)cc1)CC2=O` (racemic) [SKN, (+/−) 7-O-methylnaringenin], the half-life at 100 µM is 10.1 min in [1] (pH 7.4, rat liver microsomes); more than 60 min in data set [3] (pH 7.4, human liver microsomes); 0.9 min in [4] (NADPH +); 3.8 min in data set [4] (NADPH −); 5.4 min in [5] (pH 7.4, mouse liver microsomes); 5.8 min in data set [6] (NADPH +). The half-life at 100 µM in data set [6] (NADPH −) is 24.2 min; in [9] (pH 7.4, dog liver microsomes) it was 2.7 min. In addition, the CLint scaled at 100 µM in data set [1] (pH 7.4, rat liver microsomes, read-out: CLint, hepatic) was 124 mL/min/kg; in [3] (pH 7.4, human liver microsomes, read-out: CLint, hepatic) it was less than 20.8 mL/min/kg; in [4] (NADPH +) it was 3280 mL/min/kg; in [4] (NADPH −), 802 mL/min/kg; in data set [5] (pH 7.4, mouse liver microsomes, read-out: CLint, hepatic) it was 565 mL/min/kg; in data set [6] (NADPH +), 300 mL/min/kg. Besides, the CLint scaled at 100 µM in data set [6] (NADPH −) amounted to 71.4 mL/min/kg; in [9] (pH 7.4, dog liver microsomes, read-out: CLint, hepatic), 641 mL/min/kg. Further, the “Amount Remaining at 30 min (%)” value is listed as 29.0% in data set [1] (rat liver microsomes 1 mg/mL, SKN 100 μM); 65.5% in [3] (human liver microsomes 0.5 mg/mL, SKN 100 μM); 0.0% in [4] (NADPH +); 1.8% in [4] (NADPH −); 4.90% in [5] (mouse liver microsomes 1 mg/mL, SKN 100 μM); 0.0% in data set [6] (NADPH +). Further, the “Amount Remaining at 30 min (%)” value is reported as 42.4% in data set [6] (NADPH −) and 18.5% in data set [9] (dog liver microsomes 1 mg/mL, SKN 100 μM). The “estrogen receptor (ER) agonist-like activity” value in data set [2] was “agonist-like activity”. The “amount of SKN remaining after 60 min of incubation” value was “greater than 50%” in data set [3] (human liver microsomes, 60 min); 4.9% in [5] (mouse liver microsomes, 60 min); 18.5% in [9] (dog liver microsomes, 60 min). For the same molecule, in data set [4] (NADPH +), the “t1/2” value is on record as 0.91 min. The “% Inhibition in Pre-Incubation” value in data set [7] (15 min pre-incubation) is reported as 10.1 ± 1.2%. In addition, the “% Inhibition in Co-Incubation” value in data set [7] (human liver microsomes) worked out at 2.0 ± 0.6%. This molecule also returned a CYP3A4-luciferase activity increase in data set [8] of 3.8 fold.

As to `O=C1C[C@@H](c2ccc(O)c(O)c2)Oc2cc(O)cc(O)c21` [Eriodictyol, 3′-hydroxynaringenin], in [10], the “anti-proliferative activity compared to naringenin” value is “two-fold higher”.

Values taken from paper PMC6100415, “Hepatic Metabolism of Sakuranetin and Its Modulating Effects on Cytochrome P450s and UDP-Glucuronosyltransferases” (Molecules : A Journal of Synthetic Chemistry and Natural …, 2018).
